Data reported in US6498862B1 (priority 1999, dated 2002).

System: B. cepacia biofilm
Type: cell-based, Burkholderia cepacia

O=[O+][O-] [ozone, Ozone]
biocide efficacy (rank order, from cell number/3000 μm^2 and total cell area vs elapsed time): greatest
